Source: ChEMBL document CHEMBL5518215, “Unlocking Antibacterial Potential: Key-Site-Based Regulation of Antibacterial Spectrum of Peptides” (J Med Chem, 2024)

Experiments:
[1] = Cytotoxicity against mouse RAW264.7 cells assessed as cell survival rate measured after 8 hrs by MTT assay; assay type: toxicity, cell-based
[2] = tested on: Enterococcus faecalis; assay: Antimicrobial activity against Enterococcus faecalis 29212 assessed as absence bacterial growth measured after 18 to 24 hrs incubation by NCCLS method; assay type: functional; conditions: time 18-24 hrs
[3] = tested on: Escherichia coli; assay: Antimicrobial activity against Escherichia coli 25922 assessed as absence bacterial growth measured after 18 to 24 hrs incubation in presence of NH4Cl by NCCLS method; assay type: functional; conditions: time 18-24 hrs
[4] = tested on: Escherichia coli; assay: Antimicrobial activity against Escherichia coli 25922 assessed as bacterial killing measured after 16 hrs incubation; assay type: functional
[5] = Antimicrobial activity against Salmonella pullorum C7913 assessed as absence bacterial growth measured after 18 to 24 hrs incubation by NCCLS method; assay type: functional, Salmonella enterica subsp. enterica serovar Pullorum; conditions: Salmonella enterica, time 18-24 hrs
[6] = tested on: Escherichia coli; assay: Antimicrobial activity against Escherichia coli K88 assessed as absence bacterial growth measured after 18 to 24 hrs incubation by NCCLS method; assay type: functional; conditions: time 18-24 hrs
[7] = tested on: Escherichia coli; assay: Antimicrobial activity against Escherichia coli 25922 assessed as absence bacterial growth measured after 18 to 24 hrs incubation in presence of ZnCl2 by NCCLS method; assay type: functional; conditions: time 18-24 hrs
[8] = tested on: Escherichia coli; assay: Antimicrobial activity against Escherichia coli 25922 assessed as absence bacterial growth measured after 18 to 24 hrs incubation in presence of MgCl2 by NCCLS method; assay type: functional; conditions: time 18-24 hrs
[9] = tested on: Staphylococcus aureus; assay: Antimicrobial activity against Methicillin-resistant Staphylococcus aureus 43300 assessed as absence bacterial growth measured after 18 to 24 hrs incubation by NCCLS method; assay type: functional; conditions: time 18-24 hrs
[10] = tested on: Bacillus cereus; assay: Antimicrobial activity against Bacillus cereus 1.932 assessed as bacterial killing measured after 16 hrs incubation; assay type: functional
[11] = tested on: Escherichia coli; assay: Antimicrobial activity against Escherichia coli 25922 assessed as absence bacterial growth measured after 18 to 24 hrs incubation by NCCLS method; assay type: functional; conditions: time 18-24 hrs
[12] = tested on: Salmonella typhimurium; assay: Antimicrobial activity against Salmonella typhimurium C7731 assessed as bacterial killing measured after 16 hrs incubation; assay type: functional, Salmonella enterica subsp. enterica serovar Typhimurium; conditions: Salmonella enterica
[13] = tested on: Staphylococcus aureus; assay: Antimicrobial activity against Staphylococcus aureus 29213 assessed as bacterial killing measured after 16 hrs incubation; assay type: functional
[14] = Cytotoxicity against human HEK-293T cells assessed as cell survival rate measured after 8 hrs by MTT assay; assay type: toxicity, cell-based
[15] = tested on: Escherichia coli; assay: Antimicrobial activity against Escherichia coli K88 assessed as bacterial killing measured after 16 hrs incubation; assay type: functional
[16] = tested on: Staphylococcus aureus; assay: Antimicrobial activity against Staphylococcus aureus 25923 assessed as bacterial killing measured after 16 hrs incubation; assay type: functional
[17] = Antimicrobial activity against Salmonella pullorum C7913 assessed as bacterial killing measured after 16 hrs incubation; assay type: functional, Salmonella enterica subsp. enterica serovar Pullorum; conditions: Salmonella enterica
[18] = tested on: Bacillus cereus; assay: Antimicrobial activity against Bacillus cereus 1.932 assessed as absence bacterial growth measured after 18 to 24 hrs incubation by NCCLS method; assay type: functional; conditions: time 18-24 hrs
[19] = tested on: Escherichia coli; assay: Antimicrobial activity against Escherichia coli 25922 assessed as absence bacterial growth measured after 18 to 24 hrs incubation in presence of KCl by NCCLS method; assay type: functional; conditions: time 18-24 hrs
[20] = tested on: Acinetobacter baumannii; assay: Antimicrobial activity against Acinetobacter baumannii 1.6769 assessed as bacterial killing measured after 16 hrs incubation; assay type: functional
[21] = tested on: Escherichia coli; assay: Antimicrobial activity against Escherichia coli 25922 assessed as absence bacterial growth measured after 18 to 24 hrs incubation in presence of FeCl3 by NCCLS method; assay type: functional; conditions: time 18-24 hrs
[22] = tested on: Salmonella typhimurium; assay: Antimicrobial activity against Salmonella typhimurium 14028 assessed as bacterial killing measured after 16 hrs incubation; assay type: functional, Salmonella enterica subsp. enterica serovar Typhimurium; conditions: Salmonella enterica
[23] = tested on: Staphylococcus epidermidis; assay: Antimicrobial activity against Staphylococcus epidermidis 12228 assessed as bacterial killing measured after 16 hrs incubation; assay type: functional
[24] = tested on: Salmonella typhimurium; assay: Antimicrobial activity against Salmonella typhimurium 14028 assessed as absence bacterial growth measured after 18 to 24 hrs incubation by NCCLS method; assay type: functional, Salmonella enterica subsp. enterica serovar Typhimurium; conditions: Salmonella enterica, time 18-24 hrs
[25] = tested on: Staphylococcus aureus; assay: Antimicrobial activity against Staphylococcus aureus 29213 assessed as absence bacterial growth measured after 18 to 24 hrs incubation by NCCLS method; assay type: functional; conditions: time 18-24 hrs
[26] = tested on: Staphylococcus aureus; assay: Antimicrobial activity against Staphylococcus aureus 29213 assessed as absence bacterial growth measured after 18 to 24 hrs incubation by NCCLS m; assay type: functional; conditions: time 18-24 hrs
[27] = tested on: Escherichia coli; assay: Antimicrobial activity against Escherichia coli 25922 assessed as absence bacterial growth measured after 18 to 24 hrs incubation in presence of 12.5% serum by NCCLS method; assay type: functional; conditions: time 18-24 hrs
[28] = tested on: Escherichia coli; assay: Antimicrobial activity against Escherichia coli 25922 assessed as absence bacterial growth measured after 18 to 24 hrs incubation in presence of NaCl by NCCLS method; assay type: functional; conditions: time 18-24 hrs
[29] = tested on: Staphylococcus epidermidis; assay: Antimicrobial activity against Staphylococcus epidermidis 12228 assessed as absence bacterial growth measured after 18 to 24 hrs incubation by NCCLS method; assay type: functional; conditions: time 18-24 hrs
[30] = tested on: Pseudomonas aeruginosa; assay: Antimicrobial activity against Pseudomonas aeruginosa 27853 assessed as absence bacterial growth measured after 18 to 24 hrs incubation by NCCLS method; assay type: functional; conditions: time 18-24 hrs
[31] = tested on: Acinetobacter baumannii; assay: Antimicrobial activity against Acinetobacter baumannii 1.6769 assessed as absence bacterial growth measured after 18 to 24 hrs incubation by NCCLS method; assay type: functional; conditions: time 18-24 hrs
[32] = tested on: Erythrocyte; assay: Hemolytic activity in human RBC at effective concentration measured after 1 hr by microplate reader analysis; assay type: toxicity, cell-based
[33] = Cytotoxicity against porcine IPEC-J2 cells assessed as cell survival rate measured after 8 hrs by MTT assay; assay type: toxicity, cell-based, Sus scrofa; conditions: pig
[34] = tested on: Staphylococcus aureus; assay: Antimicrobial activity against Methicillin-resistant Staphylococcus aureus 43300 assessed as bacterial killing measured after 16 hrs incubation; assay type: functional
[35] = tested on: Pseudomonas aeruginosa; assay: Antimicrobial activity against Pseudomonas aeruginosa 27853 assessed as bacterial killing measured after 16 hrs incubation; assay type: functional
[36] = tested on: Salmonella typhimurium; assay: Antimicrobial activity against Salmonella typhimurium C7731 assessed as absence bacterial growth measured after 18 to 24 hrs incubation by NCCLS method; assay type: functional, Salmonella enterica subsp. enterica serovar Typhimurium; conditions: Salmonella enterica, time 18-24 hrs
[37] = tested on: Escherichia coli; assay: Antimicrobial activity against Escherichia coli 25922 assessed as absence bacterial growth measured after 18 to 24 hrs incubation in presence of 50% serum by NCCLS method; assay type: functional; conditions: time 18-24 hrs
[38] = tested on: Escherichia coli; assay: Antimicrobial activity against Escherichia coli 25922 assessed as absence bacterial growth measured after 18 to 24 hrs incubation in presence of 25% serum by NCCLS method; assay type: functional; conditions: time 18-24 hrs
[39] = tested on: Listeria monocytogenes; assay: Antimicrobial activity against Listeria monocytogenes 1.10753 assessed as bacterial killing measured after 16 hrs incubation; assay type: functional
[40] = tested on: Enterococcus faecalis; assay: Antimicrobial activity against Enterococcus faecalis 29212 assessed as bacterial killing measured after 16 hrs incubation; assay type: functional
[41] = tested on: Listeria monocytogenes; assay: Antimicrobial activity against Listeria monocytogenes 1.10753 assessed as absence bacterial growth measured after 18 to 24 hrs incubation by NCCLS method; assay type: functional; conditions: time 18-24 hrs

For H-GKLWLKGFKLWLKGGKLWLKG-NH2, the IC50 at 8 h [1] was 31 µM, the MIC [2] was 2 µM and the MIC [3] was 2 µM. It also gave an MBC [4] of 2 µM, an MIC [5] of 0.5 µM and an MIC [6] of 1 µM. For the same substance, the MIC [7] was 2 µM, the MIC [8] was 4 µM and the MIC [9] was 2 µM. It also gave an MBC [10] of 2 µM, an MIC [11] of 2 µM and an MBC [12] of 32 µM. It also gave an MBC [13] of 4 µM, an IC50 at 8 h [14] of 36.6 µM and an MBC [15] of 1 µM. The MBC [16] was 4 µM, the MBC [17] was 2 µM and the MIC [18] was 2 µM. It also gave an MIC [19] of 4 µM, an MBC [20] of 2 µM and an MIC [21] of 2 µM. It also gave an MBC [22] of 8 µM, an MBC [23] of 4 µM and an MIC [24] of 2 µM. It also gave an MIC [25] of 4 µM, an MIC [26] of 4 µM and an MIC [27] of 16 µM. It also gave an MIC [28] of 4 µM, an MIC [29] of 4 µM and an MIC [30] of 4 µM. The MIC [31] was 2 µM, the HC10 [32] was 128 µM and the IC50 at 8 h [33] was 35.7 µM. The MBC [34] was 8 µM, the MBC [35] was 16 µM and the MIC [36] was 8 µM. For the same substance, the MIC [37] was over 32 µM, the MIC [38] was over 32 µM and the MBC [39] was over 32 µM. It also gave an MBC [40] of 4 µM and an MIC [41] of over 32 µM.

H-GKLWLKGMKLWLKGGKLWLKG-NH2 gave an IC50 at 8 h [1] of over 64 µM, an MIC [2] of 4 µM and an MIC [3] of 2 µM. The MBC [4] was 2 µM, the MIC [5] was 1 µM and the MIC [6] was 1 µM. It also gave an MIC [7] of 2 µM, an MIC [8] of 8 µM and an MIC [9] of 2 µM. It also gave an MBC [10] of 2 µM, an MIC [11] of 2 µM and an MBC [12] of 8 µM. The MBC [13] was 4 µM, the IC50 at 8 h [14] was over 64 µM and the MBC [15] was 1 µM. The MBC [16] was 16 µM, the MBC [17] was 1 µM and the MIC [18] was 1 µM. For the same substance, the MIC [19] was 2 µM, the MBC [20] was 1 µM and the MIC [21] was 2 µM. It also gave an MBC [22] of 2 µM, an MBC [23] of 4 µM and an MIC [24] of 2 µM. For the same substance, the MIC [25] was 4 µM, the MIC [26] was 4 µM and the MIC [27] was 32 µM. It also gave an MIC [28] of 8 µM, an MIC [29] of 4 µM and an MIC [30] of 4 µM. The MIC [31] was 1 µM, the HC10 [32] was 128 µM and the IC50 at 8 h [33] was 21 µM. It also gave an MBC [34] of 2 µM, an MBC [35] of 8 µM and an MIC [36] of 4 µM. It also gave an MIC [37] of over 32 µM, an MIC [38] of over 32 µM and an MBC [39] of over 32 µM. For the same substance, the MBC [40] was 8 µM and the MIC [41] was over 32 µM.

With H-GKLWLKGLKLWLKGGKLWLKG-NH2 the IC50 at 8 h [1] was 32.7 µM, the MIC [2] was 4 µM and the MIC [3] was 2 µM. For the same substance, the MBC [4] was 2 µM, the MIC [5] was 1 µM and the MIC [6] was 1 µM. The MIC [7] was 2 µM, the MIC [8] was 4 µM and the MIC [9] was 2 µM. For the same substance, the MBC [10] was 4 µM, the MIC [11] was 2 µM and the MBC [12] was 16 µM. It also gave an MBC [13] of 4 µM, an IC50 at 8 h [14] of 47.2 µM and an MBC [15] of 1 µM. For the same substance, the MBC [16] was 8 µM, the MBC [17] was 1 µM and the MIC [18] was 4 µM. It also gave an MIC [19] of 2 µM, an MBC [20] of 2 µM and an MIC [21] of 2 µM. The MBC [22] was 1 µM, the MBC [23] was 4 µM and the MIC [24] was 1 µM. The MIC [25] was 4 µM, the MIC [26] was 4 µM and the MIC [27] was 16 µM. For the same substance, the MIC [28] was 4 µM, the MIC [29] was 2 µM and the MIC [30] was 4 µM. The MIC [31] was 2 µM, the HC10 [32] was 64 µM and the IC50 at 8 h [33] was 21.1 µM. It also gave an MBC [34] of 2 µM, an MBC [35] of 32 µM and an MIC [36] of 4 µM. For the same substance, the MIC [37] was over 32 µM, the MIC [38] was over 32 µM and the MBC [39] was over 32 µM. It also gave an MBC [40] of 4 µM and an MIC [41] of over 32 µM.
